Measurements: patent US8846698B2, “Pyrrolo[2,3-d]pyrimidine tropomysin-related kinase inhibitors” (Pfizer Limited, priority 2011, dated 2014)
Where two headings read alike, the source gives them in different places.

Key:
BCRP (ABCG2) = BCRP (ABCG2) (Homo sapiens (Human), UniProt Q9UNQ0); experiment: MDCK-BCRP efflux assay (in vitro brain penetration); format: in vitro ADME; details: dog; for Papp A→B: A to B, read-out: RRCK BCRP Papp AB; for Papp B→A: B to A, read-out: RRCK BCRP Papp BA
TRKC = TRKC (Homo sapiens (Human), UniProt Q16288); experiment: Cell based DiscoveRx PathHunter antagonist assay, TRKC cell line; details: read-out: TrkC cell potency
TRKC, sequence (Q16288 32-839): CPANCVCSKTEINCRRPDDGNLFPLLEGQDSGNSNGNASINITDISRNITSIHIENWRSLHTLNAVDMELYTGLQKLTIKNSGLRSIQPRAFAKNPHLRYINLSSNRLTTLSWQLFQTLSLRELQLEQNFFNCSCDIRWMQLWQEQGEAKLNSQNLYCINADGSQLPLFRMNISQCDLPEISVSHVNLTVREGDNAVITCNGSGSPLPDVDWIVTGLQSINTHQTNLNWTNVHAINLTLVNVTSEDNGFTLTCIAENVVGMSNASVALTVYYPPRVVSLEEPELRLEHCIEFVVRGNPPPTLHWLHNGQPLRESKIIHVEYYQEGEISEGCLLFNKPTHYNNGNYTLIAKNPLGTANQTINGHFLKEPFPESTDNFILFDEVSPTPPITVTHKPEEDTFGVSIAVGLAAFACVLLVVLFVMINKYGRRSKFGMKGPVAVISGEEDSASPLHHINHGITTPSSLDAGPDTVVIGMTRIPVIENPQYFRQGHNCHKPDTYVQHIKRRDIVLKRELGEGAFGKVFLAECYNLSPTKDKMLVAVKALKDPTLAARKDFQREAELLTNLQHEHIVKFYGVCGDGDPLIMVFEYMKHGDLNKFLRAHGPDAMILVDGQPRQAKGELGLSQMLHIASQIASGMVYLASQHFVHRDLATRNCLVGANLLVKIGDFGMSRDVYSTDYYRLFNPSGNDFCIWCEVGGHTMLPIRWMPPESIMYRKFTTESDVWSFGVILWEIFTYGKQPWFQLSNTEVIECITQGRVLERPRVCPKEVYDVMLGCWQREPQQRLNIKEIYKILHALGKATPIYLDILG
Method: After the Detection Reagent addition, plates are covered and incubated at room temperature for 60 minutes. […] Test compound data are expressed as percentage inhibition defined by HPE and ZPE values for each plate. Percentage inhibition in the presence of test compound is plotted against compound concentration on a log scale to determine an IC50 from the resultant sigmoid curve. Cell Based Assays were carried out using Cell lines from DiscoveRx utilising their PathHunter technology and reagents in an antagonist assay:
The assays are based upon DiscoveRx's proprietary Enzyme Fragment Complementation (EFC) technology. In the case of the TRK cell lines, the enzyme acceptor (EA) protein is fused to a SH2 protein and the TRK receptor of interest has been tagged with a Prolink tag.
Upon neurotrophin binding, the TRK receptor becomes phosphorylated, and the tagged SH2 protein binds.
This means that the IC50 is a good measure of affinity and should be unaffected by concentration neurotrophin stimulant.
Cryopreserved PathHunter cells are used from either in-house produced batches or bulk batches bought directly from DiscoveRx. Cryopreserved cells are resuscitated, spun 1000 rpm for 4 min to remove freezing media, and resuspended in MEM+0.5% horse serum (both Invitrogen) to 5e^5 cells/ml. The cells are then plated using a Multidrop into Greiner white tissue culture treated plates at 20 ul/well and incubated for 24 h at 37° C., 5% CO2, high humidity. On the day of the assay, the cell plates are allowed to cool to room temperature for 30 min prior to the assay.
Plates containing 1 ul of serially diluted compound, standard and HPE/ZPE are diluted 1/66 in assay buffer (PBS minus Ca^2+, minus Mg^2+ with 0.05% pluronic F127) using a Wellmate. […] The plates are left at room temperature for a further 2 hours before addition of 10 ul of the DiscoveRx PathHunter detection reagent (made up by adding 1 part Galacton Star, 5 parts Emerald II and 19 parts Cell Assay Buffer as per the manufacturer's instructions).
After reagent addition, plates are covered and incubated at room temperature for 60 minutes. Luminescence signal is read using an Envision. Test compound data are expressed as percentage inhibition defined by HPE and ZPE values for each plate. Percentage inhibition in the presence of test compound is plotted against compound concentration on a log scale to determine an […] from the resultant sigmoid curve.

TRKB [1] = target: T1, TRKB (Homo sapiens (Human), UniProt Q16620); experiment: biochemical
T1 sequence (Q16620 32-822 limits assumed): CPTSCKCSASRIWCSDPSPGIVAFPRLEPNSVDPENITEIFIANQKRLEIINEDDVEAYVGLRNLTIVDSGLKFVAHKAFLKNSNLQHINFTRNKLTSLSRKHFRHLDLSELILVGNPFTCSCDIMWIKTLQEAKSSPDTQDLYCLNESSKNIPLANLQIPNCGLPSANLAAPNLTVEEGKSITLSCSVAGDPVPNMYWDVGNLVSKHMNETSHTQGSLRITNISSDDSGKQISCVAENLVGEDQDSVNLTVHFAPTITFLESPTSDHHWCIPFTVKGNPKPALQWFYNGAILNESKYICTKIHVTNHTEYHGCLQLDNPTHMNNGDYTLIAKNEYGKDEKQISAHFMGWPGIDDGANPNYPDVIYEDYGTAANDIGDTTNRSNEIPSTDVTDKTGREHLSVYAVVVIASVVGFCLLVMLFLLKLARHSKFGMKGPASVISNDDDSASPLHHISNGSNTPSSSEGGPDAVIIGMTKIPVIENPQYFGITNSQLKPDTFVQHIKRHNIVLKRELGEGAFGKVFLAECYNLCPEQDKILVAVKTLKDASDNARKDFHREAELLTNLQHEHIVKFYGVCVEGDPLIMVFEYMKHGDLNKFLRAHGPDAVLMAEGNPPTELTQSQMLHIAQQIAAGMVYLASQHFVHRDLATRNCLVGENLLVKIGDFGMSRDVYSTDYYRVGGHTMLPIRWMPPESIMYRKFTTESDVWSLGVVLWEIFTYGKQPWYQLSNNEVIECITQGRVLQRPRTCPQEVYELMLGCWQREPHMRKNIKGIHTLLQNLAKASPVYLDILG

MDR1 = MDR1 (Homo sapiens (Human), UniProt P08183); experiment: MDCK-MDR1 assay (in vitro brain penetration); format: in vitro ADME; details: human; for Papp A→B: MDCK-MDR1, A to B, read-out: MDCK MDR1 Papp AB; for Papp B→A: read-out: MDCK MDR1 Papp BA
MDR1, sequence (P08183 whole entry): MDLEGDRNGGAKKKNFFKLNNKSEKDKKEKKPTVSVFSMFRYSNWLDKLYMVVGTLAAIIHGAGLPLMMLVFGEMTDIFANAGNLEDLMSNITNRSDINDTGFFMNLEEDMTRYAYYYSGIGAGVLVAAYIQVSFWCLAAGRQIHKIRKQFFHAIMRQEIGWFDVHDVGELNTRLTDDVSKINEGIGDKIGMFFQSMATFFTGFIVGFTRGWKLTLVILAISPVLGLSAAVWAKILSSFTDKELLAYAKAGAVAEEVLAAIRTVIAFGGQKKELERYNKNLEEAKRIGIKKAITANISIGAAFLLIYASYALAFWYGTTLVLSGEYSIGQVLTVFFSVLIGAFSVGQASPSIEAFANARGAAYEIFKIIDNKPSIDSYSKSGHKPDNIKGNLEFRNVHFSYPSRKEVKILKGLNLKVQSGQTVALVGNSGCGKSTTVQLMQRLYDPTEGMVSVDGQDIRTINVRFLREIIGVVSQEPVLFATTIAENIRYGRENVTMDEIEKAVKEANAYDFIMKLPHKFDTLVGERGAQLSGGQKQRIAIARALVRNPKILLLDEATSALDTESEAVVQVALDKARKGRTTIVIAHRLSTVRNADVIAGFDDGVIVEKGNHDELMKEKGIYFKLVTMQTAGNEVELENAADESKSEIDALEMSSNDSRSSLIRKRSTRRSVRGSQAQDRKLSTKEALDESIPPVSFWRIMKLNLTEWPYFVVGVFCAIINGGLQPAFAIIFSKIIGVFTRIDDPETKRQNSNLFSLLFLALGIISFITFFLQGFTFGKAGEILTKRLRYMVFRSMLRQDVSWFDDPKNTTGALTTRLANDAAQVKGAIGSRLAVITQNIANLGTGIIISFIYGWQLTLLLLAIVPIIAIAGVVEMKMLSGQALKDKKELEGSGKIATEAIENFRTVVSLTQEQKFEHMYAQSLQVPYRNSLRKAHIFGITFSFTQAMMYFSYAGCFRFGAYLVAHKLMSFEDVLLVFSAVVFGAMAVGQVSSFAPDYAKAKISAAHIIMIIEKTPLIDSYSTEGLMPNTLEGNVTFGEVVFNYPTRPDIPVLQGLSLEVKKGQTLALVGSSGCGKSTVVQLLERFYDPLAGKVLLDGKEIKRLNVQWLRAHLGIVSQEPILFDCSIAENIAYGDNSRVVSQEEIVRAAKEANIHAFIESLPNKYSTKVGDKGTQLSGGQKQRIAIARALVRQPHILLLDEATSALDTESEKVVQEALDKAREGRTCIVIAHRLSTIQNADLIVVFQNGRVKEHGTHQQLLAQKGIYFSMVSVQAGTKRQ
Excerpt: MDCK-MDR1: MDCK-MDR1 data were collected according to the method described in “Are MDCK Cells Transfected with the Human MDR1 Gene a Good Model of the Human Intestinal Mucosa?”
http://www.springerlink.com/content/qfhqlqbr4fnp3 khf/fulltext.pdf

TRKA [2] = target: T2, TRKA (Homo sapiens (Human), UniProt P04629); experiment: Isolated TRK enzyme assay (HTRF KinEASE-TK), TRKA; format: biochemical; details: isolated TRKA enzyme; read-out: TrkA enzyme potency
Target sequence in this assay (P04629 441-796): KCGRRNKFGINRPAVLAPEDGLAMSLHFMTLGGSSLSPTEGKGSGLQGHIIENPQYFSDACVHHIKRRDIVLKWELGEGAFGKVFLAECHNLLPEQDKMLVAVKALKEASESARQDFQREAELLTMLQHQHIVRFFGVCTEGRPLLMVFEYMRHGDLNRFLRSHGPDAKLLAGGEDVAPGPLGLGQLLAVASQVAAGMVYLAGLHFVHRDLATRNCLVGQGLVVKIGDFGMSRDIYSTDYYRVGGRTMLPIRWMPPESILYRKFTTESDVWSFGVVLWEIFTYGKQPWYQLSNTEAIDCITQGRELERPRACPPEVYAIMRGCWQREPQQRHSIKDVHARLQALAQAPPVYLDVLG

TRKB [3] = target: T1, TRKB; experiment: cell-based; details: TrkB cell potency, TRKB PathHunter cell line
TRKA [4] = target: T2, TRKA; experiment: Cell based DiscoveRx PathHunter antagonist assay, TRKA cell line; details: read-out: TrkA cell potency
Target sequence in this assay (P04629 33-796): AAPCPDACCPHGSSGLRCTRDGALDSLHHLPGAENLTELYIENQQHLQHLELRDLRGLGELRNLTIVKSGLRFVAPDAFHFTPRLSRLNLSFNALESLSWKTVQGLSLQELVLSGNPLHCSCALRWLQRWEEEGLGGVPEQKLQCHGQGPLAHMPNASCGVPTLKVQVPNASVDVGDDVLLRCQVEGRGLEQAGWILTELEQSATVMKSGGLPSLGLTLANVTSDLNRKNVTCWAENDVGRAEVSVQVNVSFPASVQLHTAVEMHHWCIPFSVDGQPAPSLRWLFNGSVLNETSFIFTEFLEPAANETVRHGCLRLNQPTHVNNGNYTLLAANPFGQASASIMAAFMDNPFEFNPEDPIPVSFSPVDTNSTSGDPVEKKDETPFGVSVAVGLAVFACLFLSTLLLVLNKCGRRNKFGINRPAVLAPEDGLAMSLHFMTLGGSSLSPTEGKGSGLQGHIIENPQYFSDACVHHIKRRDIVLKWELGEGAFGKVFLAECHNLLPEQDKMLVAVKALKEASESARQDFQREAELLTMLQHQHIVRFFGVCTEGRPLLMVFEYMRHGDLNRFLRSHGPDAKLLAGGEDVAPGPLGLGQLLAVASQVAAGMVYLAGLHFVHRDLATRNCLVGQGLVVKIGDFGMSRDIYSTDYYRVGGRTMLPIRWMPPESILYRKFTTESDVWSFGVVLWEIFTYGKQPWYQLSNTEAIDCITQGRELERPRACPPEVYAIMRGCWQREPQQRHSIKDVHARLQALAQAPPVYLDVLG

BCRP (ABCG2), sequence (Q9UNQ0 whole entry): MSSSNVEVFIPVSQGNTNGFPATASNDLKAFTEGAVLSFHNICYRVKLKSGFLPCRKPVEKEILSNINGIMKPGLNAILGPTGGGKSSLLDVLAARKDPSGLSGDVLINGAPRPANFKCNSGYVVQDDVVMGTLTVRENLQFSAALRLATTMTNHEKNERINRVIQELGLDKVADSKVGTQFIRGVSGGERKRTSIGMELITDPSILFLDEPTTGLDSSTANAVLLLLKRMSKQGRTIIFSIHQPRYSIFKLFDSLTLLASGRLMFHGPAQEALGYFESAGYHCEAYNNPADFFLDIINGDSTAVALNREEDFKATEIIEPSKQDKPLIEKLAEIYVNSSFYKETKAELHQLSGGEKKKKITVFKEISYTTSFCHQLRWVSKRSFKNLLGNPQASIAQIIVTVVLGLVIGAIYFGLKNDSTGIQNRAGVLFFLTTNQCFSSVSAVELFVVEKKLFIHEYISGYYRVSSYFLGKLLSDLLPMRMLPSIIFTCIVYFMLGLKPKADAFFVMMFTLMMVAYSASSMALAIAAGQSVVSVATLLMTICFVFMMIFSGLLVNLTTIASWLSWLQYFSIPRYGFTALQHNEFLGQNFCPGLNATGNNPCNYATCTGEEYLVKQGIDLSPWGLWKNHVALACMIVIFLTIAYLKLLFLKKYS

Row | SMILES | Papp A→B (BCRP (ABCG2)) | Papp B→A (BCRP (ABCG2)) | IC50 (TRKC) | IC50 (TRKB [1]; TrkB enzyme potency) | Papp A→B (MDR1) | Papp B→A (MDR1; MDCK-MDR1, B to A) | IC50 (TRKA [2]) | IC50 (TRKB [3]) | IC50 (TRKA [4]) | IC50 (TRKB [1]; isolated TRKB enzyme, read-out: TrkB enzyme potency) | Papp B→A (MDR1; MDCK-MDR1, MDCK-MDR1, B to A)
1 | CC(C)(C)n1cc(C(=O)c2cncc(NC(=O)Cn3cc(C4CC4)nn3)c2)c2cncnc21 [Example 4, N-{5-[(7-tert-butyl-7H-pyrrolo[2,3-d]pyrimidin-5-yl)carbonyl]pyridin-3-yl}-2-(4-cyclopropyl-1H-1,2,3-triazol-1-yl)acetamide] | 12 ×10⁻⁶ cm/s | 39 ×10⁻⁶ cm/s | 4.4 nM | 162 nM | < 1 ×10⁻⁶ cm/s | 13 ×10⁻⁶ cm/s | 3.9 nM | 6.5 nM | 5.7 nM |  | 
2 | C[C@@H](CO)n1cc(C(=O)c2cncc(NC(=O)Cc3ccc(C(F)(F)F)cc3)c2)c2cncnc21 [Example 9, N-[5-({7-[(1S)-2-Hydroxy-1-methylethyl]-7H-pyrrolo[2,3-d]pyrimidin-5-yl}carbonyl)pyridin-3-yl]-2-[4-(trifluoromethyl)phenyl]acetamide] | 9 ×10⁻⁶ cm/s | 43 ×10⁻⁶ cm/s | 5.9 nM |  | < 1 ×10⁻⁶ cm/s |  | 3.7 nM | 6.6 nM | 13 nM | 94 nM | 20 ×10⁻⁶ cm/s
3 | Cc1cc(C(F)(F)F)nn1CC(=O)Nc1cncc(C(=O)c2cn(C(C)(C)CO)c3ncncc23)c1 [Example 26, N-(5-{[7-(2-hydroxy-1,1-dimethylethyl)-7H-pyrrolo[2,3-d]pyrimidin-5-yl]carbonyl}pyridin-3-yl)-2-[5-methyl-3-(trifluoromethyl)-1H-pyrazol-1-yl]acetamide] | 7.5 ×10⁻⁶ cm/s | 32 ×10⁻⁶ cm/s | 8.6 nM | 30 nM | < 1 ×10⁻⁶ cm/s | 16 ×10⁻⁶ cm/s | 3.5 nM | 5.9 nM | 14 nM |  | 
4 | CC(C)(CO)n1cc(C(=O)c2cncc(NC(=O)Cc3ccc(Cl)cn3)c2)c2cnc(N)nc21 [Example 46, N-(5-{[2-Amino-7-(2-hydroxy-1,1-dimethylethyl)-7H-pyrrolo[2,3-d]pyrimidin-5-yl]carbonyl}pyridin-3-yl)-2-(5-chloropyridin-2-yl)acetamide] | 7 ×10⁻⁶ cm/s | 31 ×10⁻⁶ cm/s |  |  | < 1 ×10⁻⁶ cm/s |  |  |  |  |  | 18 ×10⁻⁶ cm/s

Second part, the compound after the results:

Row | Papp A→B (BCRP (ABCG2)) | Papp B→A (BCRP (ABCG2)) | IC50 (TRKC) | IC50 (TRKB [1]; TrkB enzyme potency) | Papp A→B (MDR1) | Papp B→A (MDR1; MDCK-MDR1, B to A) | IC50 (TRKA [2]) | IC50 (TRKB [3]) | IC50 (TRKA [4]) | IC50 (TRKB [1]; isolated TRKB enzyme, read-out: TrkB enzyme potency) | Papp B→A (MDR1; MDCK-MDR1, MDCK-MDR1, B to A) | SMILES
5 |  |  | 8.1 nM | 103 nM | < 1 ×10⁻⁶ cm/s | 9.1 ×10⁻⁶ cm/s | 3.1 nM | 16 nM | 22 nM |  |  | CC(C)(CO)n1cc(C(=O)c2cncc(NC(=O)Cn3ccc(C(F)(F)F)n3)c2)c2cnc(N)nc21 [Example 52, N-(5-{[2-amino-7-(2-hydroxy-1,1-dimethylethyl)-7H-pyrrolo[2,3-d]pyrimidin-5-yl]carbonyl}pyridin-3-yl)-2-[3-(trifluoromethyl)-1H-pyrazol-1-yl]acetamide]
6 |  |  | 8.6 nM | 163 nM | < 1 ×10⁻⁶ cm/s | 13 ×10⁻⁶ cm/s | 4 nM | 5 nM | 16 nM |  |  | CC(C)(CO)n1cc(C(=O)c2cncc(NC(=O)Cn3ccc(C4CC4)n3)c2)c2cnc(N)nc21 [Example 53, N-(5-{[2-amino-7-(2-hydroxy-1,1-dimethylethyl)-7H-pyrrolo[2,3-d]pyrimidin-5-yl]carbonyl}pyridin-3-yl)-2-(3-cyclopropyl-1H-pyrazol-1-yl)acetamide]
